For experiment [1], the system named is freshly isolated human neutrophils (PMNs). Put plainly: Live time-lapse confocal imaging of probe uptake in activated human neutrophils. The format is cell-based. The procedure:
(§1) Human peripheral blood leukocytes from healthy volunteers were prepared as previously described^25. Briefly, citrated blood was centrifuged at room temperature for 20 min at 350 g, and platelet-rich plasma was removed. Autologous serum was prepared by recalcification of platelet-rich plasma by addition of CaCl2 to a final concentration of 2 mM. Leukocytes were separated from erythrocytes by dextran sedimentation using 0.6% dextran T500 (Pharmacia, Milton Keynes, UK), and the leukocyte-rich upper layer was then fractionated using isotonic Percoll (Pharmacia). Neutrophils and mononuclear leukocytes (PBMC) were harvested from the 68%181% and 55/68% interfaces, respectively. In some experiments, neutrophils were labelled with DiD (Invitrogen, molecular probes) (2.5 μM) in D-PBS (w/o Ca/Mg) for 20 min at room temperature.
A laser-scanning confocal imaging system (LSM510; Carl Zeiss, Jena, Germany), incorporating an upright Axioskop FS2 microscope (63× objective) was used for image acquisition and processing. Exposure to 488 nm light was limited to 1-6% of the maximum laser power in order to minimize photobleaching and toxicity. In all cases, images were obtained without Kalman averaging and typically with a pixel dwell time of 3.2 μs with a pinhole diameter corresponding to 1 Airy unit. In multiple-labelling experiments pinhole diameters were adjusted to give optical Z-sections of equivalent depths, corresponding to 1 Airy unit for the longest excitation wavelength. All live time-lapse imaging of was performed in IMDM. Coverslips were transferred to a thermostatted environmental stage (POC Mini) maintained at 30° C.^26. Drugs were added by bath addition. In experiments where fluorescein was examined alone, the fluorophore was excited with a dedicated 488 nm line, and emitted light reflected from a NFT545 filter and passed through an LP505 filter.
In multiple labelling experiments involving membrane (DiD, Invitrogen), or dextran-647, and IQR probes, images were obtained simultaneously. DiD or dextran-647 was excited with a dedicated 633 nm line, and emitted light detected with meta detector (650-705 nm), whereas Fluorescein was excited with a dedicated 488 nm line, and emitted light reflected from a NFT545 filter and passed through an LP505 filter.
Neutrophils and mononuclear cells (6×10^5 cells total), or PBMC-derived macrophages, were seeded onto glass coverslips pre-coated with 10 μg/ml fibronectin (Sigma). Cells were allowed to adhere and 10 μM (final concentration) IQR1.2 added to wells prior to transfer to POC mini and placement in environmental chamber. Live imaging commenced at 30 s intervals. Baseline images were acquired for 10-15 min prior to addition of A21387 (10 μM, Sigma) and live time-lapse confocal images acquired for further 20 min. Where sivelestat or dynasore was included, cells were pretreated for 10 minutes prior to imaging.

For experiment [2], the system named is PMNs, monocytes and lymphocytes. Nature of the experiment: Human cell specificity by live confocal imaging. The format is cell-based. The following applies: PMNs vs monocytes vs lymphocytes. The procedure:
as §1, with “temperature. […]” for “temperature.”
In multiple labelling experiments using IQR probes in combination with syto-85 (Invitrogen, 2.5 μM, 30 minutes, 37° C.), images were acquired sequentially. Fluorescein was excited with a dedicated 488 nm line and emitted light reflected from a NFT545 filter and passed through an LP505 filter whereas syto-85 were excited with a dedicated 543 nm line, and emitted light detected with meta detector ([…]). […]

For experiment [3], the system named is freshly isolated human neutrophils. Nature of the experiment: In vitro Cellvizio 488 nm fibreoptic confocal imaging. The format is cell-based. The method, then:
Human neutrophils were isolated as described above and suspended in PBS with or without activating agents. A fibreoptic confocal system (488 Cellvizio) was used to acquire images in eppendorfs of cells both in the presence of free FAM and IQRs and after washing cells of free FAM and IQR in media. Imaging was performed for 60 s and representative still frames converted to bmp format.

In experiment [4] the target is T1, recombinant human neutrophil elastase (HNE) (Homo sapiens, UniProt P08246).
T1 sequence (P08246 30-267): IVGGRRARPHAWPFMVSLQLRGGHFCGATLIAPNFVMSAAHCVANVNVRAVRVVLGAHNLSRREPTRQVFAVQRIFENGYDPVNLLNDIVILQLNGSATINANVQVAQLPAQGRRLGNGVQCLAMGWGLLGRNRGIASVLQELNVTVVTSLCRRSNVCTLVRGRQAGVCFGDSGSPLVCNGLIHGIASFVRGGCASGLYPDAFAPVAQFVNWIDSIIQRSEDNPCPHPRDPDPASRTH
Put plainly: Fluorescent microplate reader dequenching with HNE. The format is biochemical. As to conditions: 50 uM.
Procedure: IQR4 (0.5 uM) was incubated with of human neutrophil elastase (HNE; 11.3 ug/ml) in reaction buffer (50 mm Hepes buffer, pH 7.4, 0.75 m NaCl, 0.05% Igepal CA-630 (v/v)) with or without of sivelestat (50 uM). The timecourse of fluorescence dequenching was followed for 30 min with a fluorescence microplate reader (excitation 480/20, emission 528/25).

In another experiment the test system is human neutrophil lysate. Nature of the experiment: Fluorescent microplate reader dequenching with neutrophil lysate. The format is biochemical. The following applies: 50 uM. The procedure: For experiments using neutrophil lysate, IQR4 (0.5 uM) is incubated with freeze-thawed neutrophil lysate (10×10^8 cells/ml) in IMDM with or without sivelestat (50 uM). The timecourse of fluorescence dequenching was followed for 30 min with a fluorescence microplate reader (excitation 480/20, emission 528/25).

“Also recorded” adds a separate entry of the source.

On to 5(6)-carboxyfluorescein [FAM], for which the “probe uptake after pretreatment with dynamin inhibitor Dynasore” value in experiment [1] (activated neutrophils, Dynasore pretreatment) is on record as “prevented”. In addition, the “appearance of punctate cell-associated fluorescence” value in experiment [1] (activation with 10 μM A23187 (calcium ionophore), confocal imaging) is reported as “rapid appearance of punctate cell-associated fluorescence”. Moreover, in experiment [2], the “cell specificity of probe uptake/activation” value is “Only activated PMN's internalise FAM”. For the same compound, the “resolution of activated cells before wash” value in experiment [3] (15 min exposure, probe in medium) is listed as “not possible to resolve activated cells”. Also, in experiment [3] (cells spun down, probe removed), the “visibility of activated cells after washing” value is “activated cells are visible”.

Regarding `O=C(N/N=C/c1ccc(O)c(O)c1)c1cc2ccccc2cc1O` [Dynasore], the “effect on uptake of IQR1.2 by activated neutrophils” value in experiment [1] (pre-treatment, probe IQR1.2) is given as “prevented”. Also, the “effect on uptake of FAM by activated neutrophils” value in experiment [1] (pretreatment, probe FAM) is on record as “prevented”. Also, the “effect on cell-associated fluorescence of IQR1 in activated neutrophils” value in experiment [1] (probe IQR1) is recorded as “inhibited”.

On to `CC(C)(C)C(=O)Oc1ccc(S(=O)(=O)Nc2ccccc2C(=O)NCC(=O)O)cc1` [sivelestat], for which the “effect on punctate cell-associated fluorescence from probe IQR4 in activated neutrophils” value in experiment [1] (50 μM, pre-treatment 10 mins, A23187) is listed as “blocked; also recorded: inhibits the appearance of this punctate cell-associated fluorescence”. For the same compound, the “effect on HNE-induced dequenching of IQR4” value in experiment [4] is “inhibited; also recorded: blocked”. The “effect on neutrophil lysate-induced dequenching of IQR4” value in the experiment with human neutrophil lysate is “blocked; also recorded: inhibited”.

Values taken from patent US10434191B2, “Optical imaging probes” (THE UNIVERSITY COURT OF THE UNIVERSITY OF EDINBURGH, priority 2011, dated 2019).
